# Data as given in PMC2034084, “Pharmacokinetics and binding of the bioreductive probe for hypoxia, NITP: effect of route of administration” (British Journal of Cancer, 1995).
# Where “and” joins values, the source holds several entries; their conditions need not be identical. Equal values may be shown once.
# Legend:
# [1] = Solubility of NITP in water and in Molecusol HPB solution; type: physicochemical; conditions: Molecusol HPB solution vs water
# Excerpt: (§1) Britsh Journal of Cancer (1995) 72, 1462-1468 ft (32) 1995 Stockton Press All rights reserved 0007-0920/95 $12.00 Pharmacokinetics and binding of the bioreductive probe for hypoxia, NITP: effect of route of administration RJ Hodgkiss, MRL Stratford, MF Dennis and SA Hill Gray Laboratory Cancer Research Trust, P.O. Box 100, Mount Vernon Hospital, Northwood, Middlesex HA6 2JR, UK. Summary The novel compound 7-[4'-(2-nitroimidazol-l-yl)-butyl]-theophylline (NITP) can be used as an immunologically detectable probe for hypoxic cells. Because of the limited water solubility of NITP, it has been administered dissolved in peanut oil with 10% dimethylsulphoxide (DMSO). A new aqueous formulation has been devised, based on a 50% solution of a modified P-cyclodextrin (Molecusol HPB), which increases the water solubility of NITP 10-fold. […] Binding of the marker to hypoxic cells within tumours was also measured after the different routes of administration. […] The novel compound 7-[4'-(2-nitroimidazol-1-yl)-butyl]- theophylline (NITP), has been described as an immuno- logically detectable bioreductive probe for hypoxic cells (Hodgkiss et al., 1991), and appears to offer promise as a method of quantifying tumour hypoxia in vivo. […]
# [2] = Toxicity and tolerability after oral or i.p. administration; type: in vivo, mice
# Excerpt: as §1
# [3] = Plasma and tumour pharmacokinetics of NITP by HPLC after different routes and vehicles; type: in vivo, CBA mice; conditions: for AUC s.e.m. Tumour: CaNT tumour
# Excerpt: Britsh Journal of Cancer (1995) 72, 1462-1468 ft (32) 1995 Stockton Press All rights reserved 0007-0920/95 $12.00 Pharmacokinetics and binding of the bioreductive probe for hypoxia, NITP: effect of route of administration RJ Hodgkiss, MRL Stratford, MF Dennis and SA Hill Gray Laboratory Cancer Research Trust, P.O. Box 100, Mount Vernon Hospital, Northwood, Middlesex HA6 2JR, UK. Summary The novel compound 7-[4'-(2-nitroimidazol-l-yl)-butyl]-theophylline (NITP) can be used as an immunologically detectable probe for hypoxic cells. Because of the limited water solubility of NITP, it has been administered dissolved in peanut oil with 10% dimethylsulphoxide (DMSO). A new aqueous formulation has been devised, based on a 50% solution of a modified P-cyclodextrin (Molecusol HPB), which increases the water solubility of NITP 10-fold. The pharmacokinetics of NITP in plasma and tumours have been compared following oral and intraperitoneal (i.p.) administration of the NITP in Molecusol, i.p. administration of NITP dissolved in peanut oil + 10% DMSO and injection of a near-saturated aqueous solution of the drug intravenously via the tail vein or i.p. or directly into the tumours. Binding of the marker to hypoxic cells within tumours was also measured after the different routes of administration. The Molecusol vehicle was unexpectedly toxic when administered i.p., but there was no toxicity from NITP dissolved in Molecusol when administered orally. […] Binding of NITP within tumours has also been observed following direct injection of the drug, with minimal whole-body exposure to NITP. […] In particular, bioreductive drugs are specifically activated in hypoxic cells and can target those cells that are resistant to radiotherapy (for review see Stratford, 1992). Numerous methods have been proposed for measuring tumour hypoxia (for review see Hodgkiss and Wardman, 1992), in the hope that this would allow treatment to be optimised for individual patients on the basis of the oxygen status of their tumours. In particular, the hypoxia-specific binding of isotopically labelled 2-nitroimidazoles has been used to identify hypoxic cells in tumours, (e.g. Chapman et al., 1982; Franko and Chapman, 1982; Garrecht and Chap- man, 1983; Raleigh et al., 1985; Rasey et al., 1985; Urtasun et al., 1986). Immunological detection of 2-nitroimidazoles has been described (Raleigh et al., 1987; Hodgkiss et al., 1991; Lord et al., 1993) and avoids the administration of radioactive labels, which would be particularly desirable for clinical measurement of tumour hypoxia. The novel compound 7-[4'-(2-nitroimidazol-1-yl)-butyl]- theophylline (NITP), has been described as an immuno- logically detectable bioreductive probe for hypoxic cells (Hodgkiss et al., 1991), and appears to offer promise as a method of quantifying tumour hypoxia in vivo. However, the water solubility of NITP is only c. 2 x 10^-3 M at 20'C and its administration in vivo, dissolved in water or saline, would require an inconveniently large volume of drug solution to be given to achieve an adequate dose level of c. 0.45 lsmol g-'. To circumvent this problem, NITP has been administered in vivo as a solution in peanut oil + 10% DMSO (Hodgkiss et al., 1991). While this formulation has given satisfactory results in the tumour models used, it is clearly unsuitable for clinical administration, and an aqueous preparation of the drug would be preferable. ,-Cyclodextrin consists of seven glucose units joined into a ring, taking up the shape of a three-dimensional torus with a hydrophobic cavity. 'Guest' molecules of a suitable size can fit into the central cavity, and the inclusion complex thus formed can increase the aqueous solubility of lipophilic com- pounds (Szejtli, 1982). […] This paper describes the use of a modified 2-hydroxy-propyl-p-cyclodextrin (Mole- cusol HPB) as an agent for preparing aqueous solutions of NITP. […]
# CaNT tumours = experiment: Bound adducts of NITP in cells from tumours, fluorescent immunochemical staining and flow cytometry; type: in vivo, CBA mice; conditions: for proportion of total cells in the region of bound NITP metabolites: control region 1%
# Excerpt: Britsh Journal of Cancer (1995) 72, 1462-1468 ft (32) 1995 Stockton Press All rights reserved 0007-0920/95 $12.00 Pharmacokinetics and binding of the bioreductive probe for hypoxia, NITP: effect of route of administration RJ Hodgkiss, MRL Stratford, MF Dennis and SA Hill Gray Laboratory Cancer Research Trust, P.O. Box 100, Mount Vernon Hospital, Northwood, Middlesex HA6 2JR, UK. Summary The novel compound 7-[4'-(2-nitroimidazol-l-yl)-butyl]-theophylline (NITP) can be used as an immunologically detectable probe for hypoxic cells. Because of the limited water solubility of NITP, it has been administered dissolved in peanut oil with 10% dimethylsulphoxide (DMSO). A new aqueous formulation has been devised, based on a 50% solution of a modified P-cyclodextrin (Molecusol HPB), which increases the water solubility of NITP 10-fold. The pharmacokinetics of NITP in plasma and tumours have been compared following oral and intraperitoneal (i.p.) administration of the NITP in Molecusol, i.p. administration of NITP dissolved in peanut oil + 10% DMSO and injection of a near-saturated aqueous solution of the drug intravenously via the tail vein or i.p. or directly into the tumours. Binding of the marker to hypoxic cells within tumours was also measured after the different routes of administration. The Molecusol vehicle was unexpectedly toxic when administered i.p., but there was no toxicity from NITP dissolved in Molecusol when administered orally. […] Binding of NITP within tumours has also been observed following direct injection of the drug, with minimal whole-body exposure to NITP. […] In particular, bioreductive drugs are specifically activated in hypoxic cells and can target those cells that are resistant to radiotherapy (for review see Stratford, 1992). Numerous methods have been proposed for measuring tumour hypoxia (for review see Hodgkiss and Wardman, 1992), in the hope that this would allow treatment to be optimised for individual patients on the basis of the oxygen status of their tumours. In particular, the hypoxia-specific binding of isotopically labelled 2-nitroimidazoles has been used to identify hypoxic cells in tumours, (e.g. Chapman et al., 1982; Franko and Chapman, 1982; Garrecht and Chap- man, 1983; Raleigh et al., 1985; Rasey et al., 1985; Urtasun et al., 1986). […] The novel compound 7-[4'-(2-nitroimidazol-1-yl)-butyl]- theophylline (NITP), has been described as an immuno- logically detectable bioreductive probe for hypoxic cells (Hodgkiss et al., 1991), and appears to offer promise as a method of quantifying tumour hypoxia in vivo. […]
# [4] = 0.45 umol g-1 i.p. in peanut oil + 10% DMSO
# [5] = 0.45 and 0.09 umol g-1 oral in Molecusol
# [6] = Molecusol HPB i.p. 0.09 umol g-1
# [7] = Molecusol HPB i.p. 0.45 umol g-1
# [8] = Molecusol HPB oral 0.09 umol g-1
# [9] = Molecusol HPB oral 0.45 umol g-1, pooled data for three experiments
# [10] = Molecusol HPB oral (footnote a), dose printed 0
# [11] = Peanut oil/DMSO i.p. 0.45 umol g-1
# [12] = plasma, Molecusol HPB i.p. 0.09 umol g-1
# [13] = plasma, Molecusol HPB i.p. 0.45 umol g-1
# [14] = plasma, Molecusol HPB oral 0.09 umol g-1
# [15] = plasma, Molecusol HPB oral 0.45 umol g-1, pooled data for three experiments
# [16] = plasma, Molecusol HPB oral (footnote a), dose printed 0
# [17] = plasma, Peanut oil/DMSO i.p. 0.45 umol g-1
# [18] = plasma, Saline i.p. 0.015 umol g-1
# [19] = plasma, Saline i.t. 0.006 umol g-1
# [20] = saline i.v. 0.015 umol g-1, non-linear regression, biphasic curve
structure (smiles),measurement,setting,value
"Cn1c(=O)c2c(ncn2CCCCn2ccnc2[N+](=O)[O-])n(C)c1=O [NITP, 7-[4'-(2-nitroimidazol-l-yl)-butyl]-theophylline]",improvement in the solubility of NITP over that in water alone,[1],10 fold and ~ 10 fold
same,toxicity,"[2]; NITP in Molecusol i.p., dose reduced by a factor of 5 (0.09 umol g-1)",no toxicity
same,tolerability,"[2]; oral, up to 0.9 umol g-1 NITP in Molecusol (20 umol g-1)",well tolerated with no obvious toxicity
same,peak plasma concentration relative to that predicted from a uniform distribution of the compound administered,[3]; [4],about 20%
same,time plasma remains at plateau level,[3]; [4],about 50 min
same,time to reach plasma plateau level,[3]; [4],10 to 15 min
same,peak plasma level relative to that expected from a uniform distribution of the drug,[3]; [5],about 20%
same,plasma clearance half-life,[3]; [5],22 min
same,AUC s.e.m. Tumour,[3]; [6],2.01 M min (x 103)
same,AUC s.e.m. Tumour,[3]; [7],21.2 M min (x 103)
same,AUC s.e.m. Tumour,[3]; [8],0.310 M min (x 103)
same,AUC s.e.m. Tumour,[3]; [9],4.09 M min (x 103)
same,AUC s.e.m. Tumour,[3]; [10],4.62 M min (x 103)
same,AUC s.e.m. Tumour,[3]; [11],6.72 M min (x 103)
same,AUC s.e.m. Tumour,[3]; Saline i.t. 0.006 umol g-1,2.64 M min (x 103)
same,AUC s.e.m. Plasma,[3]; [6],2.54 M min (x 103)
same,AUC s.e.m. Plasma,[3]; [7],27.4 M min (x 103)
same,AUC s.e.m. Plasma,[3]; [8],0.543 M min (x 103)
same,AUC s.e.m. Plasma,[3]; [9],5.41 M min (x 103)
same,AUC s.e.m. Plasma,[3]; [10],5.73 M min (x 103)
same,AUC s.e.m. Plasma,[3]; [11],9.26 M min (x 103)
same,AUC s.e.m. Plasma,[3]; Saline i.p. 0.015 umol g-1,0.100 M min (x 103)
same,AUC s.e.m. Plasma,[3]; Saline i.t. 0.006 umol g-1,0.054 M min (x 103)
same,AUC s.e.m. Plasma,[3]; Saline i.v. 0.005 umol g-1,0.041 M min (x 103)
same,AUC s.e.m. Plasma,[3]; Saline i.v. 0.015 umol g-1,0.177 M min (x 103)
same,Half life s.e.m.,[3]; [12],19.7 min
same,Peak concentration + s.e.m.,[3]; [12],58.2 µM
same,Half life s.e.m.,[3]; [13],36.6 min
same,Peak concentration + s.e.m.,[3]; [13],401 µM
same,Half life s.e.m.,[3]; [14],22.4 min
same,Peak concentration + s.e.m.,[3]; [14],16.2 µM
same,Half life s.e.m.,[3]; [15],26.5 min
same,Peak concentration + s.e.m.,[3]; [15],104 µM
same,Half life s.e.m.,[3]; [16],22.3 min
same,Peak concentration + s.e.m.,[3]; [16],127 µM
same,Half life s.e.m.,[3]; [17],33.1 min
same,Peak concentration + s.e.m.,[3]; [17],96.3 µM
same,Half life s.e.m.,[3]; [18],7.84 min
same,Peak concentration + s.e.m.,[3]; [18],6.78 µM
same,Half life s.e.m.,[3]; [19],9.79 min
same,Peak concentration + s.e.m.,[3]; [19],3.68 µM
same,Half life s.e.m.,"[3]; plasma, Saline i.v. 0.005 umol g-1",8.86 min
same,Peak concentration,"[3]; plasma, Saline i.v. 0.005 umol g-1, 1 min, n = 1",4.06 µM
same,Half life s.e.m.,"[3]; plasma, Saline i.v. 0.015 umol g-1, linear fit to terminal elimination phase",9.64 min
same,volume of distribution,"[3]; saline i.v. 0.015 umol g-1, non-linear regression data",0.63 mL/g
same,distribution phase half-life,[3]; [20],1.7 min
same,elimination half-life,[3]; [20],9.2 min
same,factor by which plasma concentrations lie below the tumour concentration,[3]; single i.t. injection of 0.1 ml 2 x 10^-3 M NITP,≥ 20
same,binding of NITP in tumours,CaNT tumours; direct injection of NITP saline solution into tumours,substantial binding
same,binding of NITP in tumours,CaNT tumours; i.v. injection of 2 x 10^-3 M solution in saline,little binding
same,proportion of total cells in the region of bound NITP metabolites,CaNT tumours; tumour excised 30 min after oral 0.09 umol g-1 NITP in Molecusol,17%
same,proportion of total cells in the region of bound NITP metabolites,CaNT tumours; tumour excised 90 min after oral 0.45 umol g-1 NITP in Molecusol,19%
